{"source": "patent US20050164259A1", "about": "“Sequences” (priority 2001, published 2005)", "key": {"[1]": {"target": "T1, pyranosone dehydratase (PD) (Phanerodontia chrysosporium, UniProt P84193)", "T1 construct": "The cell-free extract of Phanerochaete crysosporium was brought up to 55% ammonium sulphate saturation; endogenous in cells; host or cells: Phanerochaete chrysosporium ATCC 32629 and ATCC 24725; Native enzyme purified from cell-free extract by ammonium sulphate fractionation, then the procedure of Gabriel et al. 1993", "T1 sequence (P84193 8-900 limits assumed)": "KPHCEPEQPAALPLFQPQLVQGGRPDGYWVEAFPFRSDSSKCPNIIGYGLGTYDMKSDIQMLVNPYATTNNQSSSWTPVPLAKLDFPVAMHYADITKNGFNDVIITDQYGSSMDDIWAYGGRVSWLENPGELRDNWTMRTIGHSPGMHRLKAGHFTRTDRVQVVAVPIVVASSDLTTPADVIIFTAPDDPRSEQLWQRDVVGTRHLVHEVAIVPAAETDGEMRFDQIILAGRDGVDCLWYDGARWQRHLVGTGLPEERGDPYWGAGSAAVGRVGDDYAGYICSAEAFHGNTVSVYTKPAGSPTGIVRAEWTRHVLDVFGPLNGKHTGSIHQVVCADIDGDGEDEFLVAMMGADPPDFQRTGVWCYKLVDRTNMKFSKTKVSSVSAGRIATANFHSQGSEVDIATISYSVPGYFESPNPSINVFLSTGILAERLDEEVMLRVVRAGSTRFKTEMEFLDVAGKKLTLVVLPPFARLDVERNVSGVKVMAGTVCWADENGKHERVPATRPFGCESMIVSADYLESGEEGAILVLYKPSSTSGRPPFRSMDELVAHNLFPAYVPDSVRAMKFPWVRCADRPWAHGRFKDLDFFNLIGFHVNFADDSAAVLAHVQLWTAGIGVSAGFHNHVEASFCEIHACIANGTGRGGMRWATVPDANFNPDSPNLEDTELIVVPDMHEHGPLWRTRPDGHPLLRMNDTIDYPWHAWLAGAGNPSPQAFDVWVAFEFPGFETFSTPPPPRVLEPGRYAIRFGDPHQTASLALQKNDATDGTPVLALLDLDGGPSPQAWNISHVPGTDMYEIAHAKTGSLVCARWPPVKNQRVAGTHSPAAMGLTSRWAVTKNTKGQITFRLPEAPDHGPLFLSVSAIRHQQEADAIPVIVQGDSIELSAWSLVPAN", "experiment": "Conversion of AF or glucosone by pyranosone dehydratase, monitored at 226 nm", "assay_type": "biochemical, Phanerochaete chrysosporium", "conditions": "for OD 226 nm using substance as substrate: 22° C., 5.5 hours"}, "Aphanomyces": {"tested_on": "Aphanomyces", "experiment": "Field emergence trial FEHCPO34 Aphanomyces, pelleted sugar beet seeds", "assay_type": "in vivo", "conditions": "pellets containing the substance; in words", "text": "Based on these findings, the efficiency of microthecin was further investigated in a field emergence trial. The trial was sown relatively late giving it a higher chance for presence of the pathogen Aphanomyces in the trial field.\n(§1) Seeds were pelleted with standard P1 pelleting mass with (1,2) or without (7,8)Thiram.\n(§2) Inner coating: 0.3 gai/U microthecin as a 0.5% solution in water or • 14.7 gai/U Hymexazol. • 60 gai/U Imidacloprid.\n(§3) Standard metallic green seed cover film.\nTrial place Bukkehave, D K. (4 reps, 200 seeds/plot)"}, "sugar beet seeds": {"tested_on": "sugar beet seeds", "experiment": "Laboratory germination of pelleted sugar beet seeds", "assay_type": "in vivo", "conditions": "in words", "text": "as §1, §2, §3"}, "Aphanomyces cochlioides [2]": {"tested_on": "Aphanomyces cochlioides", "experiment": "Example 4 screening for growth inhibition on agar plates", "assay_type": "cell-based", "conditions": "very low concentrations; wells on PDA-agar plates, 3-5 days", "protocol": "The effect of microthecin on the plant pathogenic fungi Pythium ultimum, Rhizoctonia solani and Aphanomyces cochlioides in vitro was investigated by screening for growth inhibition of the pathogens on agar-plates (FIGS. 6, 7, 8).\n(§4) In each case, microthecin was dissolved in water and placed in wells in the periphery. An agar block containing the pathogen was placed in the centre. The pathogens were allowed to grow out on the PDA-agar plates for 3-5 days."}, "[3]": {"tested_on": "Bacillus (B. Pumilus DS96.734, B. megaterium DS98.124)", "experiment": "Example 4 similar tests with other microorganisms", "assay_type": "cell-based", "protocol": "as §4"}, "[4]": {"tested_on": "Pseudomonads (P. fluorescens DS96.578, P. mendocina DS98.124)", "experiment": "Example 4 similar tests with other microorganisms", "assay_type": "cell-based", "protocol": "as §4"}, "Pythium ultimum": {"tested_on": "Pythium ultimum", "experiment": "Agar plate inhibition zone test (PDA), microthecin solutions", "assay_type": "cell-based", "conditions": "judged after 1-2 days of growth", "protocol": "(§5) Basic microthecin solution: 24 mg/ml Batch no. Mic20011016\n(§6) All solutions were filtered through a 0.22 μm filter for sterilisation.\n(§7) A circular plug (diameter 10 mm) of fresh mycelium was placed at the centre on a petri-dish (diameter 9 cm) containing PDA medium. (PDA=Potato dextrose agar Difco no. 213400). Wells with a diameter of 5 mm were cut along the periphery of the agar plate. In each well were placed 50 μl of a test solution. Alternatively, 20 μl of each test solution were placed directly on the agar along the periphery of the plate. Also, 50 μl of each test solution were placed directly on top of the fungal mycelium plug.\n(§8) The agar plates were placed at room temperature in daylight, but protected from direct sunlight.\n(§9) The reaction (inhibition zones) of the fungi to the test substance was judged as follows: […]"}, "Aphanomyces cochlioides [5]": {"tested_on": "Aphanomyces cochlioides", "experiment": "Agar plate inhibition zone test (PDA), microthecin solutions", "assay_type": "cell-based", "conditions": "judged after 3-4 days of growth", "protocol": "as §5, §6, §7, §8, §9"}, "Cercospora beticola": {"tested_on": "Cercospora beticola", "experiment": "Agar plate inhibition zone test (PDA), microthecin solutions", "assay_type": "cell-based", "conditions": "judged after 3-4 weeks of growth", "protocol": "as §5, §6, §7, §8, §9"}, "Rhizoctonia solani": {"tested_on": "Rhizoctonia solani", "experiment": "Agar plate inhibition zone test (PDA), microthecin solutions", "assay_type": "cell-based", "conditions": "judged after 2-3 days of growth", "protocol": "as §5, §6, §7, §8, §9"}, "[6]": {"conditions": "final substrate concentration 13.7 μg/ml reaction mixture"}, "[7]": {"conditions": "final substrate concentration 27.4 μg/ml reaction mixture"}, "[8]": {"conditions": "final substrate concentration 41.1 μg/ml reaction mixture"}, "[9]": {"conditions": "final substrate concentration 68.4 μg/ml reaction mixture"}, "[10]": {"conditions": "final substrate concentration 95.8 μg/ml reaction mixture"}, "[11]": {"conditions": "final substrate concentration 137 μg/ml reaction mixture"}, "[12]": {"conditions": "final substrate concentration 205 μg/ml reaction mixture"}}, "data": [{"smiles": "O=C1CO[C@H](CO)[C@@H](O)[C@@H]1O", "note": "[AF, 1,5-anhydro-D-fructose]", "values": [{"measurement": "Vmax with AF relative to glucosone", "setting": "[1]; AF versus natural substrate glucosone", "result": "around 4.7 times"}, {"measurement": "OD 226 nm using substance as substrate", "setting": "[1]; [6]", "result": 0.308}, {"measurement": "OD 226 nm using substance as substrate", "setting": "[1]; [7]", "result": 0.534}, {"measurement": "OD 226 nm using substance as substrate", "setting": "[1]; [8]", "result": 0.76}, {"measurement": "OD 226 nm using substance as substrate", "setting": "[1]; [9]", "result": 1.246}, {"measurement": "OD 226 nm using substance as substrate", "setting": "[1]; [10]", "result": 1.764}, {"measurement": "OD 226 nm using substance as substrate", "setting": "[1]; [11]", "result": 2.43}, {"measurement": "OD 226 nm using substance as substrate", "setting": "[1]; [12]", "result": 2.943}]}, {"smiles": "O=CC(=O)[C@@H](O)[C@H](O)[C@H](O)CO", "note": "[Glucosone, D-arabino-hexos-2-ulose]", "values": [{"measurement": "OD 226 nm using substance as substrate", "setting": "[1]; [6]", "result": 0.069}, {"measurement": "OD 226 nm using substance as substrate", "setting": "[1]; [7]", "result": 0.104}, {"measurement": "OD 226 nm using substance as substrate", "setting": "[1]; [8]", "result": 0.141}, {"measurement": "OD 226 nm using substance as substrate", "setting": "[1]; [9]", "result": 0.238}, {"measurement": "OD 226 nm using substance as substrate", "setting": "[1]; [10]", "result": 0.323}, {"measurement": "OD 226 nm using substance as substrate", "setting": "[1]; [11]", "result": 0.484}, {"measurement": "OD 226 nm using substance as substrate", "setting": "[1]; [12]", "result": 0.634}]}, {"smiles": "Cc1cc(O)no1", "note": "[Hymexazol]", "values": [{"measurement": "speed of germination in field emergence trials", "setting": "Aphanomyces", "result": "germinate relatively slow"}, {"measurement": "4d>15mm germination", "setting": "sugar beet seeds", "result": "low 4d>15mm germination"}]}, {"smiles": "O=C1C=CCOC1(O)CO", "note": "(stereo not drawn) [microthecin]", "values": [{"measurement": "growth of Aphanomyces", "setting": "Aphanomyces cochlioides [2]", "result": "able to reduce the growth"}, {"measurement": "effect on the growth of Bacillus", "setting": "[3]", "result": "no effect"}, {"measurement": "effect on Pseudomonads", "setting": "[4]", "result": "slightly affected"}, {"measurement": "final germination in field", "setting": "Aphanomyces", "result": "high final germination"}, {"measurement": "speed of germination in field emergence trials", "setting": "Aphanomyces", "result": "comparable with pellets only containing Thiram"}, {"measurement": "minimum inhibition concentration (mic)", "setting": "Pythium ultimum", "result": 480, "unit": "ppm"}, {"measurement": "minimum inhibition concentration (mic)", "setting": "Aphanomyces cochlioides [5]", "result": 1200, "unit": "ppm"}, {"measurement": "minimum inhibition concentration (mic)", "setting": "Cercospora beticola", "result": 2400, "unit": "ppm"}, {"measurement": "minimum inhibition concentration (mic)", "setting": "Rhizoctonia solani", "result": 240, "unit": "ppm"}, {"measurement": "speed of laboratory germination (4d)", "setting": "sugar beet seeds; inclusion in pellets", "result": "decreases the speed of laboratory germination"}]}]}
